Reference: US6482805B2 (Parker Hughes Institute, priority 1998, dated 2002)
Like-named read-outs stand apart in the source and are kept apart here.

Assays:
[1] = system: normal human ectocervical epithelial cells; assay: cells; assay type: cell-based; details: 24 h, read-out: Ectocervical cells IC50
Protocol: (§1) The potential cytotoxicity of aryl phosphate derivatives of bromo-methoxy ZDV in comparison to N-9, against normal human ectocervical and endocervical epithelial cells (Clonetics Corporation, San Diego, Calif.), was measured using MTT (3-[4,5-dimethylthiazol-2-yl]-2,5-diphenyl tetrazolium bromide) cell viability assays (Boehringer Mannheim Corp., Indianapolis, Ind.) [see, D'Cruz O J, et al., Mol Hum Reprod 1999; 5:421-432; D'Cruz O J, et al., Contraception 1999; 59 (in press); and Uckun F M, et al., Antimicrob Agents Chemther 1998; 42:383-388]. Briefly, exponentially growing ectocervical and endocervical epithelial cells were seeded into 96-well plate at a density of 2×10^5 cells/well and incubated for 24 h at 37° C. prior to drug exposure. On the day of treatment, culture medium was carefully aspirated from the wells and replaced with fresh medium containing drug concentrations ranging from 3.9 μM to 1000 μm. Triplicate wells were used for each treatment. The cells were incubated with the various compounds for 24 hours at 37° C. in a humidified 5% CO2 atmosphere. To each well, 10 μl of MTT (0.5 mg/ml final concentration) was added and the plates were incubated at 37° C. for 4 hours to allow MTT to form formazan crystals by reacting with metabolically active cells. The formazan crystals were solubilized overnight at 37° C. in a solution containing 10% SDS in 0.01 M HCl. The absorbance of each well was measured in a microtiter reader at 540 nm and a reference wavelength of 690 nm. To translate the OD540 values into the number of live cells in each well, the OD540 values were compared to those of standard OD540 versus cell number curves generated for each cell line. The percent cell survival was calculated using the formula: % survival=live cell number[test]/live cell number[control]×100. The results were expressed as IC50 values. The IC50 was defined as the concentration required for 50% reduction in cell survival. Two separate experiments were performed in triplicate to assess the potential cytotoxicity of spermicidal WHI-07 analogues against ectocervical and endocervical epithelial cells.

[2] = system: normal human endocervical epithelial cells; assay: cells; assay type: cell-based; details: 24 h, read-out: Endocervical cells IC50
Protocol: as §1

[3] = system: binding of human sperm to human zona; assay: Human sperm-zona binding assay (Example 5); assay type: cell-based
Protocol: The human sperm-zona recognition and binding assay appears to predict the in vitro and in vivo fertilization outcome. […] Due to the variable number of sperm binding to human eggs, the sperm-zona binding ratio was used to assess sperm-zona binding capacity.
Following coincubation, the number of tightly bound green (SYBR 14) and blue (SYTO 17) sperm were assessed by laser scanning confocal microscopy. Frozen human eggs (n=46) were thawed and rinsed three times in BWW-0.3% BSA, and in BWW-3.5% BSA, before addition of sperm suspension. […] The first aliquot was incubated with 2.5 μM SYBR 14 (Molecular Probes) and the second aliquot was incubated with 5 μM SYTO 17. Following 30 minutes of incubation, sperm motility was assessed by CASA. Motile sperm with intensely stained green or blue nuclei were washed twice in BWW and one million motile sperm labeled with SYBR 14 (green) and SYTO 17 (blue) were added to dish containing human zona (n=2) under mineral oil and coincubated for 4 hours. Following extensive washing of eggs to dislodge any loosely adherent sperm, the eggs were mounted on glass slides and examined under a BioRad MRC-1024 Laser Scanning Confocal Microscope as described above. Using fluorescence imaging, the fluorescence emission of SYBR-14 and SYTO-17 localized on the sperm head was simultaneously recorded using 598/40 nm, and 680 DF32 emission/filter respectively. Confocal images of Z-sections were obtained using a Nikon […] (NA 1.4) objective and Kalman collection filter. Digitized images were processed with the Adobe Photoshop software and final images were printed using a Fujix Pictography 3000 color printer. The number of tightly bound green and blue-colored sperm nuclei adherent to each human egg were counted from the Z-sections of fluorescence images of each egg on all focal planes and expressed as a binding ratio.

[4] = system: human sperm binding and penetration of zona-free hamster eggs; assay: Zona-free hamster egg penetration assay (Example 6); assay type: cell-based; details: 25 μM or 100 μM, 3 hours preincubation; P<0.001
Protocol: The heterologous zona-free hamster egg penetration assay appears to correlate with the in vivo fertilizing capacity of human sperm as well as the ability of human sperm to fertilize intact human eggs in vitro.
15, 471 (1976)]. Motile fractions of sperm (n=4) obtained by 90-45% Percoll gradient centrifugation and wash were resuspended in BWW-3.5% BSA medium (pH 7.4) and divided into aliquots of 20×10^6 sperm/ml and allowed to capacitate for 24 hours. […] After exposure to drugs, the control and WHI-treated sperm suspensions were washed in BWW-3.5% BSA medium. Sperm motility following capacitation and washing in BWW-3.5% BSA medium was assessed by CASA.
Frozen hamster eggs (Charles River Laboratories, Wilmington, Mass.) were thawed and transferred to 35 mm glass bottom microwells (Mat Tek Corporation, Ashland, Mass.) in BWW medium. To remove zona, the washed eggs were treated with 0.05% trypsin (Irvine Scientific) in BWW medium for 20 min and then transferred to BWW-3.5% BSA medium and washed three times. Fifteen to 45 zona-free eggs per test were transferred in 100 μl of BWW-3.5% BSA medium under mineral oil. […] The number of sperm bound per egg, the number of swollen sperm heads per egg, and the percentage of penetrated eggs were determined for control and test sperm. […]

[5] = system: human sperm; assay: Time course of sperm immobilizing activity by CASA (Example 2); assay type: cell-based; details: 100 μM
Protocol: At timed intervals, duplicate aliquots (4-μl) were transferred to two 20 μm Microcell chambers and sperm motility was assessed by CASA.

[6] = system: human sperm in donor semen; assay: Sperm immobilizing activity in diluted semen / seminal plasma (Example 3); assay type: cell-based; details: 200 μM, 3 hours, CASA
Protocol: Following 3 hours of incubation, duplicate aliquots (4-μl) were used for CASA.

[7] = system: cervicovaginal epithelium of female CD-1 mice; assay: Cervicovaginal tissue inflammation after repetitive intravaginal application in mice (Example 8); details: for neutrophils in cervicovaginal squamous epithelia (immunofluorescence): 5% in cream base intravaginally; for mice with inflammatory response or disruption of the squamous epithelia: 5% in cream base intravaginally daily for 5 or 20 days, 10 mice
Protocol: In particular, 30 female CD-1 mice, 6 months old were randomly divided into two groups (A and B). Each group was further divided into three subgroups of 5 mice. […] After 5 and 20 days respectively, mice were killed by cervical dislocation, and tissues from the genitourinary tract were fixed in 10% buffered formalin. To determine the degree of inflammation and membrane integrity of squamous epithelia, conventional paraffin-embedded sections (6-pm) were prepared and stained with hematoxylin and eosin and observed under 300× magnification with a Leica microscope interfaced with an image analysis system (Scion), and images were transferred to Adobe Photoshop software for printout. The four stages of the estrous cycle were determined histologically.
Following antigen retrieval by heating (93° C. for 10 min in 10 mM sodium citrate buffer, pH 6.0), sections were preincubated with 10% normal goat serum in PBS, treated with optimal dilution (5 μg/ml) of the mAb followed by FITC-conjugated goat anti-rat IgG (Pierce Chemical Co., Rockford, IL). Each incubation step lasted 60 min with 5 min PBS washes between each step. The slides were counterstained with PI (1 μg/ml), washed in deionized water, mounted in anti-fade (BioRad), and visualized by laser confocal microscopy as described above. Negative controls were carried out by replacing the primary mAb with PBS or using rat IgG2 as control mAb

[8] = MTT, mean ± SD of two experiments
[9] = Homo sapiens, Epithelial cell, MTT, mean ± SD of two experiments

Molecule | IC50 [1, 8] [µM] | IC50 [2, 8] [µM] | mean sperm-zona binding ratio ([3]; sperm pretreated with 25 μM) | mean sperm-zona binding ratio ([3]; sperm pretreated with 50 μM) | mean sperm-zona binding ratio ([3]; sperm pretreated with 100 μM) | sperm binding to zona-free eggs [4] | exposure time to complete sperm immobilization [5] [min] | time required for 50% motility loss of progressively motile sperm [5] [min] | sperm motility after direct addition to semen diluted in PBS [6] | neutrophils in cervicovaginal squamous epithelia (immunofluorescence) [7] | mice with inflammatory response or disruption of the squamous epithelia [7] | IC50 [1, 9] [µM] | IC50 [2, 9] [µM] | IC50 ([1]; Homo sapiens, Epithelial cell) [µM] | IC50 ([2]; Homo sapiens, Epithelial cell) [µM]
5-Bromo-6-methoxy-5,6-dihydro-3′-azidothymidine 5′-[Phenyl methoxyalaninyl phosphate] [WHI-04] | > 1000 | > 1000 |  |  |  |  |  |  |  |  |  |  |  |  | 
5-Bromo-6-methoxy-5,6-dihydro-3′-azidothymidine-5′-[(p-Fluorophenyl methoxyalaninyl phosphate] [WHI-06] | 304 ± 79 | 939 ± 157 |  |  |  |  |  |  |  |  |  |  |  |  | 
5-bromo-6-methoxy-5,6-dihydro-3 ′-azidothymidine-5 ′-(p-methoxyphenyl) methoxyalaninyl phosphate [WHI-05] | > 1000 | 388 ± 38 | 0.18 | 0.07 | 0.10 | significant inhibition | 60 | 17 | complete loss of motility |  |  |  |  |  | 
CCCCCCCCCc1ccc(OCCOCCOCCOCCOCCOCCOCCOCCOCCO)cc1 [Compound N-9, nonoxynol-9, reference compound] |  |  |  |  |  |  |  |  |  | intense positive staining | 9 of 10 | 22 ± 8 | 16 ± 5 |  | 
COC(=O)C(C)NP(=O)(OCC1OC(N2C(=O)NC(=O)C(C)(Br)C2OC)CC1N=[N+]=[N-])Oc1ccc(Br)cc1 (stereo not shown) [WHI-07, 5-Bromo-6-methoxy-5,6-dihydro-3′-azidothymidine-5′-(p-Bromophenyl Methoxyalaninyl Phosphate)] |  |  | 0.088 | 0.039 | 0.009 | significant inhibition | 30 | 6 | complete loss of motility | absence of neutrophils | none of the 10 mice |  |  | > 1000 | 312 ± 38
